Consider three molecules from patent publication US20230272077A1, “PD-1 SIGNAL INHIBITOR COMBINATION THERAPY” (KYOTO UNIVERSITY, priority 2015, published 2023).

One series relates to RENCA. Briefly: RENCA-bearing BALB/c mice (tumor volume). The series is classed as in vivo, mouse. Conditions: RENCA in BALB/c mice, combined with anti-PD-L1 antibody. The method, then:
Murine renal cell carcinoma RENCA cells (2×10^6) were inoculated into BALB/c mice. After 7 days, anti-PD-L1 antibody (1-111A, 150 μg) and AMPK inhibitor (Compound C: 200 μg in BBS, 200 l) were administered intraperitoneally. Anti-PD-L1 antibody was administered 3 times at a regular interval of 6 days; Compound C (C.C) was administered 7 times at a regular interval 2 days. Tumor volumes (mm^3) from day 0 to day 25 of RENCA inoculation are shown.

For another series, the system named is MC38. The series is described as follows: Mouse therapy model, MC38-bearing mice (tumor volume, survival). The series is classed as in vivo. To be noted: MC38-bearing mice; for enhancement of antitumor effect of PD-L1 antibody (tumor volume) / survival rate: reagent combined with PD-L1 antibody vs PD-L1 antibody alone. The procedure: MC38 (5×10^5) and MethA (5×10^5) cells were intradermally injected on the right flank. MC38 was inoculated into C57BL/6 mice and MethA was inoculated into BALB/c mice. For monotherapy, mice were intraperitoneally injected with 150 μg of PD-L1 mouse antibody (1-111A) (prepared by the laboratory of the present inventors) 5 days after the tumor inoculation. Therapy with PD-L1 antibody alone was repeated three times every 5 days. For combination therapy, administration of PD-L1 antibody and chemical agents started 7 days after tumor injection. Chemical agents were injected at a regular interval of 2 days and PD-L1 antibody at a regular interval of 5 days (shown in FIG. 3b). Tumors were measured on every alternate day, and tumor volumes were calculated using the formula for typical ellipsoid, π×(length×breadth×height/6).
The following chemical reagents were used at the indicated concentrations for combination therapy. AMPK activator: A769662, 6 mg/kg (Abcam); mTOR activator: MHY1485, 3 μg/kg (Sigma-Aldrich); uncoupler: carbonylcyanide-p-trifluoromethoxyphenylhydrazone (FCCP), 1.2 mg/kg (Abcam); uncoupler: 2,4-Dinitrophenol (DNP), 1.7 mg/kg (Aldrich); SIRT1 activator: resveratrol, 0.5 mg/kg (Abcam); ROS scavenger: Mn (III) tetrakis (4-benzoic acid) porphyrin (MnTBAP), 1.25 mg/kg (Calbiochem); ROS generator: tert-butyl hydroperoxide solution (Luperox TBH70X), 200 μL/kg (Sigma-Aldrich); ATP synthase inhibitor: oligomycin, 250 μg/kg (Sigma-Aldrich); paraquat 2 mg/kg (Nakalai Tesque); oltipraz 1.9 mg/kg (Sigma); bezafibrate 1 mg/kg (ChemCruz).
All reagents were freshly prepared just before use. Each reagent was dissolved in the solvent indicated in the instructions. Note that the AMPK activator, mTOR activator, uncouplers and SIRT1 activator were prepared from fresh unused vials in each series of experiments. Dissolved reagents were diluted in PBS, and a 200 l aliquot was injected per mouse.
Murine colon adenocarcinoma MC38 cells (5×10^5) were inoculated into C57BL/6 mice. After 7 days, anti-PD-L1 antibody (1-111A, 150 μg) and AMPK inhibitor (Compound C: 200 μg in BBS, 200 μL) were administered intraperitoneally. Anti-PD-L1 antibody was administered 3 times at a regular interval of 6 days; Compound C (C.C) was administered 7 times at a regular interval 2 days.
MC38 cells (5×10^5) were inoculated into C57BL/6 mice. After 7 days, anti-PD-L1 antibody (1-111A, 150 μg) and PGC-1α/transcription factor complex activator (2-(4-{2-[(4-chlorobenzoyl)amino]ethyl}phenoxy)-2-methylpropanoic acid (bezafibrate): 10 ug in PBS, 200 ul) were administered intraperitoneally. Anti-PD-L1 antibody was administered 3 times at a regular interval of 6 days; bezafibrate was administered 7 times at a regular interval 2 days.

The next series has as its system IFN-γ. The series is described as follows: Intracellular IFN-γ staining of CD8+ T cells from digested tumor tissues. The series is classed as in vivo, mouse. Conditions: CD8+ T cells in tumors; combined with PD-L1 antibody. The procedure: (§1) FIG. 15. […] Data represent the means±SEM of five mice. *p<0.05, **p<0.01, one-way ANOVA.
(§2) The following antibodies recognizing the indicated antigens were used: CD44 (1M7), CD45.2 (104), CD45.1 (A20), CD8 (53-6.7), CD62L (MEL-14), T-bet (4B/O) and IFN-7 (XMG1.2), MHC class I (AF6-88.5), CD155 (Tx56) and VISTA (MIH63) from BioLegend; p-AMPK (EPR5683) from Ancam; p-mTOR (MRRBY), Eomes (Danllmag) and PD-L1 (M1H5) from eBioscience. All flow cytometry experiments were performed on a FACS Canto II (BD Biosciences) and analyzed using FlowJo software (FLOWJO, LLC). For assessment of intracellular phosphoproteins, cells were permeabilized with 0.5% Triton-X and fixed with 1.5% PFA before staining. Determination of mitochondrial mass, membrane potential, mitochondrial superoxide and cellular ROS was performed using MitoTracker Green, Mito-Tracker Deep Red, MitoSOX Red, and CellROX Green reagents, respectively (all from Life Technologies). These dyes were added to cells to a final concentration of 0.125 μM, 0.125 μM, 5.0 μM and 0.625 μM, respectively, and incubated at 37° C. in a 5% CO2 humidified incubator for 30 min.

The subject of another series is T-bet and Eomes. Briefly: T-bet and Eomes expression by flow cytometry in DLN CD8+ T cells. The series is classed as in vivo, mouse. To be noted: combined with PD-L1 antibody. The procedure:
as §1, §2
(In general: Flow cytometry measures light scatter and fluorescence of single cells or particles in a stream.)

For series [1] the following is noted: used in 1930's; cited from earlier work.
The subject of series [2] is mTOR and its associated proteins S6K and 4EBP1. The series is described as follows: Western blotting of DLN CD8+ T cells, mTOR pathway. The class given is in vivo, mouse. To be noted: CD8+ T cells from mice treated with PD-L1 antibody and reagent. The procedure: (§3) FIG. 7. […] Phosphorylation of AMPK, ACC, mTOR and S6K and the expression of SIRT1 and 4EBP1 were analyzed by Western blotting. b) MC38-bearing mice were treated with PD-L1 antibody in combination with AMPK activator (A769662) and/or mTOR activator (MHY1485) according to the same schedule as shown in FIG. 3b.
(§4) CD8^+ T cells were isolated using mouse CD8 Microbeads (Miltenyi Biotec). After washing with PBS twice, 2×10^6 cells were solubilized in a lysis buffer containing 30 mM Tris-HCl (pH.7.4), 150 mM NaCl, 10% glycerol, 0.1% SDS, 1% Triton-X-100, 0.05% Na-Doc, 5 mM EDTA (pH.8.0), protease inhibitor mixture (Roche Molecular Biochemicals) and phosphatase inhibitors (Nacalai Tesque). After measurement of protein concentrations by DC protein assay (Bio-Rad), 4 μg of proteins was mounted on 4 to 20% gradient Mini-PROTEAN TGX Gels (Bio-Rad) and electroblotted onto nitrocellulose membranes, which were then incubated in a blocking buffer of TBS containing 1% BSA. Primary antibody incubations were carried out overnight at 4° C. in blocking buffer. After washing, secondary antibody incubations were carried out at room temperature for 40 min in blocking buffer. Blots were developed with enhanced chemiluminescence (Amersham Pharmacia). […]

For series [3], the system named is AMPK and its associated proteins ACC and SIRT1. Briefly: Western blotting of DLN CD8+ T cells, AMPK pathway. The class given is in vivo, mouse. Conditions: CD8+ T cells from mice treated with PD-L1 antibody and reagent. The procedure: as §3, §4
(In western blotting, separated proteins are transferred to a membrane and probed.)

Entries after “also recorded” stand apart in the source; their conditions may differ.

As to `c1cc(-c2cnn3cc(-c4ccc(OCCN5CCCCC5)cc4)cnc23)ccn1` [AMPK inhibitor, 6-[4-[2-(1-Piperidinyl)ethoxy]phenyl]-3-(4-pyridinyl)pyrazolo[1,5-a]pyrimidine], the “enhancement of efficacy of anti-PD-L1 antibody therapy (tumor volume)” value with RENCA is recorded as “enhances the efficacy of anti-PD-L1 antibody therapy”; with RENCA (listed as compound C), “Synergistic effect”. Also, the figures for the “enhancement of antitumor effect of PD-L1 antibody (tumor volume)” value in the series on MC38 and with MC38 (listed as compound C) were “enhances the efficacy of anti-PD-L1 antibody therapy” and “Synergistic effect”, respectively.
Regarding `CC(C)(Oc1ccc(CCNC(=O)c2ccc(Cl)cc2)cc1)C(=O)O` [bezafibrate, 2-(4-{2-[(4-chlorobenzoyl)amino]ethyl}phenoxy)-2-methylpropanoic acid], the IFN-γ production entry with IFN-γ is “increased; also recorded: up-regulated”. Besides, in the series with T-bet and Eomes, the Eomes expression result is on record as “reduced Eomes” and the T-bet expression entry is reported as “increased T-bet; also recorded: activated T-bet; also recorded: up-regulated”. In addition, in the series on MC38, the “enhancement of antitumor effect of PD-L1 antibody (tumor volume)” value is “enhanced the tumor growth inhibitory effect of PD-L1 antibody; also recorded: synergize with PD-L1 antibody; also recorded: Synergistic effect” and the survival rate result is given as “improved the survival rate”. Also, in the series on MC38 (listed as PGC-1α/transcription factor complex activator), the “enhancement of antitumor effect of PD-L1 antibody (tumor volume)” value is given as “enhances the efficacy of anti-PD-L1 antibody therapy”.
As for `O=[N+]([O-])c1ccc(O)c([N+](=O)[O-])c1` [DNP, 2,4-dinitrophenol], the “health problems in use as diet supplement” value in series [1] is “caused severe health problems”. The “activation of mTOR and its associated proteins S6K and 4EBP1” value in series [2] is given as “also found to be activated”. Further, in series [3], the “activation of AMPK and its associated proteins ACC and SIRT1” value is “activated”. Also, the “antitumor activity of triple combination of PD-L1 antibody, DNP and Luperox” value with MC38 (DNP and Luperox both with PD-L1 antibody) is “stronger antitumor activity; also recorded: Antitumor effect is enhanced”. The “antitumor effect when administered alone” value with MC38 (reagent alone, no PD-L1 antibody, tumor volume) is “failed to exhibit any antitumor effect”. Also, in the series on MC38, the “enhancement of antitumor effect of PD-L1 antibody (tumor volume)” value is reported as “augmented the efficacy of PD-L1 antibody therapy; also recorded: enhance the antitumor effect of PD-L1 antibody” and the survival rate result is listed as “remarkably improved the survival rate”.
